Measurements published in patent US10544112B2, “Identification of ebsulfur analogues with broad-spectrum antifungal activity” (priority 2017, dated 2020).

Tests used:
[1] = test system: C. albicans ATCC 64124 (strain B); assay: microbe, parasite or virus in culture; assay type: cell-based, Candida albicans; conditions: strain B; compounds 1-4n and AmB; 48 h, RPMI 1640
Description: (§1) Fungal MIC determination experiments were performed using untreated 96-well plates (Corning). Cells were counted either by using a hemocytometer (Hausser Scientific, Horsham, Pa., USA) or by measuring optical density at attenuance of 600 nm (OD600) by using a Genesys 20 spectrophotometer (Thermo Scientific, Waltham, Mass., USA). Spectrophotometric and colorimetric measurements in 96-well plates were performed using a SpectraMax M5 spectrometer (Molecular Devices, Sunnyvale, Calif., USA).
(§2) Yeast strains Candida albicans ATCC 10231 (strain A), C. albicans ATCC 64124 (strain B), and C. albicans ATCC MYA-2876(S) (strain C) were kindly provided by Dr. Jon Y. Takemoto (Utah State University, Logan, UT, USA). C. albicans ATCC MYA-90819(R) (strain D), C. albicans ATCC MYA-2310(S) (strain E), C. albicans ATCC 1237(R) (strain F), C. albicans ATCC MYA-1003(R) (strain G), Candida glabrata ATCC 2001 (strain H), Candida krusei ATCC 6258 (strain I), and Candida parapsilosis ATCC 22019 (strain J) were obtained from the American Type Culture Collection (ATCC, Manassas, Va., USA). The (S) and (R) indicate that ATCC reports these strains to be susceptible (S) and resistant (R) to ITC and FLC. The filamentous fungal strains Aspergillus flavus ATCC MYA-3631 (strain K), and Aspergillus terreus ATCC MYA-3633 (strain M) were also obtained from the American Type Culture Collection (ATCC, Manassas, Va., USA). Aspergillus nidulans ATCC 38163 (strain L) was kindly provided by Dr. Jon S. Thorson (University of Kentucky, Lexington, Ky., USA), respectively. Yeast strains were cultured at 35° C. Filamentous fungal strains were cultured at 25° C. and the spores were harvested. All fungal strains were cultured in RPMI 1640 medium (catalog # R6504, Sigma-Aldrich Chemical Co., St. Louis, Mo.) buffered to pH 7.0 with 0.165 M morpholinepropanesulfonic acid (MOPS) buffer (Sigma-Aldrich Chemical Co.).
(§3) The MIC values against fungal strains were determined based on a previously published protocol. MIC values for ebsulfur (2a) analogues against fungal cells were evaluated in 96-well plates as described in the CLSI document M27-A3 with minor modifications. […] Therefore, potato dextrose broth (PDB) was used to grow the yeast inocula of all strains tested, which were later diluted in RPMI 1640 medium to perform determination of MIC values. […] The tested compounds (10 mg/mL) were diluted to the working stocks (500 μg/mL) by addition of DMSO. Two-fold serial dilution of the working stocks was prepared by addition of RPMI 1640 medium (100 μL) and cell suspension (100 μL) to 96-well microtiter plate to achieve final drug and inoculum concentrations ranging from 12.5-0.02 μg/mL and 5×10^3 CFU/mL, respectively. Plates were incubated for 48 h at 35° C. […]

[2] = test system: C. albicans ATCC 90819(R) (strain D); assay: microbe, parasite or virus in culture; assay type: cell-based, Candida albicans; conditions: strain D; compounds 1-4n and AmB; 48 h, RPMI 1640
Description: as §1, §2, §3

[3] = test system: C. albicans ATCC MYA-1003(R) (strain G); assay: microbe, parasite or virus in culture; assay type: cell-based, Candida albicans; conditions: strain G; compounds 1-4n and AmB; 48 h, RPMI 1640
Description: as §1, §2, §3

[4] = test system: C. albicans ATCC MYA-1237(R) (strain F); assay: microbe, parasite or virus in culture; assay type: cell-based, Candida albicans; conditions: strain F; compounds 1-4n and AmB; 48 h, RPMI 1640
Description: as §1, §2, §3

[5] = test system: C. albicans ATCC MYA-2310(S) (strain E); assay: Antifungal MIC determination (CLSI M27-A3, 96-well); assay type: cell-based, Candida albicans; conditions: strain E; compounds 1-4n and AmB; 48 h, RPMI 1640
Description: as §1, §2, §3

[6] = test system: C. albicans ATCC MYA-2876(S) (strain C); assay: as above; assay type: cell-based, Candida albicans; conditions: strain C; compounds 1-4n and AmB; 48 h, RPMI 1640
Description: as §1, §2, §3

[7] = test system: Candida albicans ATCC 10231 (strain A); assay: as above; assay type: cell-based; conditions: strain A; compounds 1-4n and AmB; 48 h, RPMI 1640
Description: as §1, §2, §3

[8] = test system: Candida glabrata ATCC 2001 (strain H); assay: as above; assay type: cell-based; conditions: strain H; compounds 1-4n and AmB; 48 h, RPMI 1640
Description: as §1, §2, §3

[9] = test system: Candida krusei ATCC 6258 (strain I); assay: as above; assay type: cell-based; conditions: strain I; compounds 1-4n and AmB; 48 h, RPMI 1640
Description: as §1, §2, §3

[10] = test system: Candida parapsilosis ATCC 22019 (strain J); assay: as above; assay type: cell-based; conditions: strain J; compounds 1-4n and AmB; 48 h, RPMI 1640
Description: as §1, §2, §3

[11] = test system: Aspergillus flavus ATCC MYA-3631 (strain K); assay: Antifungal MIC determination, filamentous fungi spores; assay type: cell-based; conditions: all compounds
Description: as §1, §2
(§4) The MIC values against fungal strains were determined based on a previously published protocol. MIC values for ebsulfur (2a) analogues against fungal cells were evaluated in 96-well plates as described in the CLSI document M27-A3 with minor modifications. […] Therefore, potato dextrose broth (PDB) was used to grow the yeast inocula of all strains tested, which were later diluted in RPMI 1640 medium to perform determination of MIC values. […] The tested compounds (10 mg/mL) were diluted to the working stocks (500 μg/mL) by addition of DMSO. Two-fold serial dilution of the working stocks was prepared by addition of RPMI 1640 medium (100 μL) and cell suspension (100 μL) to 96-well microtiter plate to achieve final drug and inoculum concentrations ranging from 12.5-0.02 μg/mL and 5×10^3 CFU/mL, respectively. Plates were incubated for 48 h at 35° C.
(§5) MIC assays for the spore-forming filamentous fungi, such as strain A. flavus ATCC MYA-3631 (strain K), were performed in a similar fashion. The filamentous fungal strains were first cultured at 25° C. on potato dextrose agar (PDA) plates for 3-5 days or until confluent. Spores were collected by washing the surface of the agar plates with dd H2O (5 mL) and then isolated the spores by gravity filtration (the spores are H2O soluble). […] Researchers working with spores should wear a facemask to prevent spore inhalation.

[12] = test system: Aspergillus nidulans ATCC 38163 (strain L); assay: as above; assay type: cell-based; conditions: strain L; spores
Description: as §1, §2, §4, §5

[13] = test system: Aspergillus terreus ATCC MYA-3633 (strain M); assay: as above; assay type: cell-based; conditions: strain M; all compounds; spores
Description: as §1, §2, §4, §5

[14] = test system: Candida and Aspergillus strains; assay: Antifungal MIC, summary over whole panel of fungal strains; assay type: cell-based; conditions: oxidized analogues
Description: as §1, §2, §3

[15] = test system: C. albicans ATCC 10231 (strain A); assay: ROS production assay (DCFH-DA); assay type: cell-based, Candida albicans; conditions: 1× and 2× MIC (H2O2 1 mM), 1-h treatment
Description: ROS production assay was performed as previously described with minor modifications. […] Once entering the cells, the DCFH-DA probe is first hydrolyzed to the non-fluorescent 2′,7′-dichlorodihydrofluorescein (DCFH) by cellular esterases. […] A colony of C. albicans ATCC 10231 (strain A) was used to inoculate 5 mL of PDB in a Falcon tube and grown overnight at 35° C. at 200 rpm.
Thus, whether the compounds of the invention would also induce ROS against C. albicans was studied. […] 2′,7′-dichlorodihydrofluorescin diacetate (DCFH-DA) was then used to detect and visualize ROS production (FIG. 5). As a positive control, cells were treated with H2O2, which is an inducer of hydroxyl radical formation.

Structure (SMILES) | MIC-0 [1] [mg/L] | MIC-0 [2] [mg/L] | MIC-0 [3] [mg/L] | MIC-0 [4] [mg/L] | MIC-0 [5] [mg/L] | MIC-0 [6] [mg/L] | MIC-0 [7] [mg/L] | MIC-0 [8] [mg/L] | MIC-0 [9] [mg/L] | MIC-0 [10] [mg/L] | MIC-0 [11] [mg/L] | MIC-0 [12] [mg/L] | MIC-0 [13] [mg/L] | antifungal activity after oxidizing the sulfur atom to sulfoxide [14] | ROS induction (DCFH-DA fluorescence) [15]
CC(C)Cn1c(=O)c2ccccc2[s+]1[O-] (stereo not shown) [Compound 4e] | >12.5 | >12.5 | >12.5 | >12.5 | >12.5 | >12.5 | >12.5 | >12.5 | >12.5 | >12.5 | >12.5 | >12.5 | >12.5 | completely abolished | –
CC(C)CCn1c(=O)c2ccccc2[s+]1[O-] (stereo not shown) [Compound 4f] | >12.5 | >12.5 | >12.5 | >12.5 | >12.5 | >12.5 | >12.5 | >12.5 | >12.5 | >12.5 | >12.5 | >12.5 | >12.5 | completely abolished | –
O=c1c2ccccc2[s+]([O-])n1C1CCCCCCC1 (stereo not shown) [Compound 4n] | >12.5 | >12.5 | >12.5 | >12.5 | >12.5 | >12.5 | >12.5 | >12.5 | >12.5 | >12.5 | >12.5 | >12.5 | >12.5 | completely abolished | –
OO [Compound H2O2, H2O2, reference compound] | – | – | – | – | – | – | – | – | – | – | – | – | – | – | highly fluorescent
